The target of one experiment is T1, human CB2R (Homo sapiens, UniProt P34972).
T1 construct: host or cells: CHO cells
Put plainly: CB2R mediated modulation of cAMP synthesis. Format: cell-based. As for the experimental part:
B. CB2R Mediated Modulation of cAMP Synthesis:
Compounds of the invention are evaluated for their CB2 agonist or inverse agonistic activity in accordance with the following experimental method.
(§1) CHO cells expressing human CB2R (Euroscreen) are plated at a density of 5000 cells per well in 384 well plates and incubated overnight at 37° C. After removing the media, the cells are treated with test compounds diluted in stimulation buffer containing 1 mM IBMX, 0.25% BSA and 10 uM Forskolin. The assay is incubated for 30 minutes at 37° C. Cells are lysed and the cAMP concentration is measured using DiscoverX-XS cAMP kit, following the manufacturer's protocol. In this setting, agonists will decrease forskolin induced production of cAMP while inverse agonists will further increase forskolin induced production of cAMP. EC50 of agonists are calculated as follows. The maximal amount of cAMP produced by forskolin compared to the level of cAMP inhibited by 1 uM CP55940 is defined as 100%. […] Data is analyzed using a four-parameter logistic model. (Model 205 of XLfit 4.0).

The target in a further experiment is T2, human CB1R (Homo sapiens, UniProt P21554).
T2 construct: host or cells: CHO cells
Put plainly: CB1R mediated modulation of cAMP synthesis. Format: cell-based. As for the experimental part:
C. CB1R Mediated Modulation of cAMP Synthesis:
Compounds of the invention are evaluated for their CB1 agonist or inverse agonistic activity in accordance with the following experimental method.
as §1, with “CB1R” for “CB2R”

[1] abbreviates: CHO cells expressing human CB2R, inhibition of forskolin-stimulated cAMP synthesis, read-out: CB2 EC50.
[2] abbreviates: CHO cells expressing human CB1R, inhibition of forskolin-stimulated cAMP synthesis, read-out: CB1 EC50.

The source of these data is patent publication US8372874B2, “Compounds which selectively modulate the CB2 receptor” (Boehringer Ingelheim International GmbH, priority 2008, dated 2013).

Like-named read-outs stand apart in the source and are kept apart here. A value given as a limit tells only on which side of the number the result lay.

T2 sequence (P21554 whole entry): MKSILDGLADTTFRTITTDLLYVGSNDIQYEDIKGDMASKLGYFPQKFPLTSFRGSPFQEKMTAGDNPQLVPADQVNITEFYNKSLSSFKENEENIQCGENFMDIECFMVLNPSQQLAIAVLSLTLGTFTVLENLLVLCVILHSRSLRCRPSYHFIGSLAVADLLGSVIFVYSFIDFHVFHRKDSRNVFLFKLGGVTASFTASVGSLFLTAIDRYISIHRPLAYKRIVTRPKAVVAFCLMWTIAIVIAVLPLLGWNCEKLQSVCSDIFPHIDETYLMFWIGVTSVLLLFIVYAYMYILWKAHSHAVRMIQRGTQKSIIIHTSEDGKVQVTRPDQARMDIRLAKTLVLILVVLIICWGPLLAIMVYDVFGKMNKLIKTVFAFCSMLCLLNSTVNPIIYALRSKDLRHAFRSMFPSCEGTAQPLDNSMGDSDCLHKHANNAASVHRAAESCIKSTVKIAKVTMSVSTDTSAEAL
T1 sequence (P34972 whole entry): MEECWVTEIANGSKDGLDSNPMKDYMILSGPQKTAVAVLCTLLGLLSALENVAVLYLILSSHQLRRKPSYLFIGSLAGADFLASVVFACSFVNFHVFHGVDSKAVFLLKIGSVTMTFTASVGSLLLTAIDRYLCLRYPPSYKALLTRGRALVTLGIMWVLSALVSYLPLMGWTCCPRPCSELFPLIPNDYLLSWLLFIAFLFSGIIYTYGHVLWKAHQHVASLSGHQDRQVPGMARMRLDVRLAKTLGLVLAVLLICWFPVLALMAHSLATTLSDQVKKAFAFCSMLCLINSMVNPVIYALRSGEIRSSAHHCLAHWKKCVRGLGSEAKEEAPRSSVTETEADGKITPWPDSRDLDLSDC

What is called EC50 is the concentration needed to bring the measured effect to its halfway point. As to `CC(C)(C(=O)Nc1cc([C@@H]2CCCO2)no1)S(=O)(=O)C1CCOCC1`, the EC50 at human CB2R (setting [1]) is 138 nM; at human CB1R (setting [2]), above 50000 nM.

Consider `CC[C@@H](O)C(C)(C)c1cc(NC(=O)C(C)(C)S(=O)(=O)C2CCOCC2)on1`, for which the EC50 at human CB2R was 70 nM; on human CB1R, above 50000 nM.

For the molecule `C[C@H](O)C(C)(C)c1cc(NC(=O)C(C)(C)S(=O)(=O)C2CCN(S(C)(=O)=O)CC2)on1`, the EC50 on human CB2R (setting [1]) was 107 nM; at human CB1R (setting [2]), above 50000 nM.

Regarding `C[C@@H](O)C(C)(C)c1cc(NC(=O)C(C)(C)S(=O)(=O)C2CCOCC2)on1`, the concentration for a half-maximal effect (EC50) at human CB2R is 20 nM; on human CB1R it was above 50000 nM.

As for `C[C@H](OC1CCCOC1)C(C)(C)c1cc(NC(=O)C(C)(C)S(=O)(=O)C2CCOCC2)on1` (some centres unmarked), the EC50 at human CB2R was 2.8 nM; at human CB1R it was above 50000 nM.

Take `CC(=O)OCC(C)(C)c1cc(NC(=O)C(C)(C)S(=O)(=O)C2CCOCC2)on1`: the values for the EC50 on human CB2R and at human CB1R were 4.2 nM and above 50000 nM, respectively.

As for `COCCOCC(C)(C)c1cc(NC(=O)C(C)(C)S(=O)(=O)C[C@H]2CCOC2)on1`, the results for the half-maximal effective concentration (EC50) on human CB2R and on human CB1R were 98 nM and above 50000 nM, respectively.

For the molecule `CC(C)(C(=O)Nc1cc(C2CCOC2)no1)S(=O)(=O)CCCC(F)(F)F` (centres unmarked), the figures for the EC50 on human CB2R (setting [1]) and on human CB1R (setting [2]) were 172 nM and above 50000 nM, respectively.

Turning to `COCCOCC(C)(C)c1cc(NC(=O)C(C)(C)S(=O)(=O)C2CCN(S(C)(=O)=O)CC2)on1`, the EC50 was 11 nM on human CB2R and above 50000 nM on human CB1R.

On to `CCC(O)C(C)(C)c1cc(NC(=O)C(C)(C)S(=O)(=O)C2CCOCC2)on1` (centres unmarked), for which the EC50 at human CB2R is 29 nM; on human CB1R, above 50000 nM.

On to `C[C@H](O)C(C)(C)c1cc(NC(=O)C(C)(C)S(=O)(=O)C2CCOCC2)on1`, for which the values for the EC50 on human CB2R and on human CB1R were 14 nM and above 50000 nM, respectively.

Regarding `CC(C)(C(=O)Nc1cc(C2(COC3CCCCO3)CCCCC2)no1)S(=O)(=O)C1CCOCC1` (centres unmarked), the EC50 at human CB2R is 22 nM; at human CB1R it was above 50000 nM.

`CC(C)(COCCO)c1cc(NC(=O)C(C)(C)S(=O)(=O)C2CCN(S(C)(=O)=O)CC2)on1`: the EC50 at human CB2R was 10 nM; on human CB1R, above 50000 nM.

Turning to `CCOCCOCC(C)(C)c1cc(NC(=O)C(C)(C)S(=O)(=O)C2CCOCC2)on1`, the EC50 was 1.5 nM on human CB2R and above 50000 nM on human CB1R.

Consider `CC(O)C(C)(C)c1cc(NC(=O)C(C)(C)S(=O)(=O)C2CCOCC2)on1` (centres unmarked), for which the EC50 at human CB2R was 14 nM; at human CB1R it was above 50000 nM.

For the molecule `CC(C)(C(=O)Nc1cc(C2CCOCC2)no1)S(=O)(=O)C1CCOCC1`, the EC50 at human CB2R (setting [1]) was 348 nM; on human CB1R (setting [2]), above 50000 nM.

On to `COCCOCC(C)(C)c1cc(NC(=O)C(C)(C)S(=O)(=O)C2CCOCC2)on1`, for which the results for the EC50 on human CB2R and at human CB1R were 2.1 nM and above 50000 nM, respectively.

With `CC(C)(O)C(C)(C)c1cc(NC(=O)C(C)(C)S(=O)(=O)C2CCOCC2)on1`, the values for the EC50 on human CB2R (setting [1]) and on human CB1R (setting [2]) were 116 nM and above 50000 nM, respectively.

For the molecule `CC(C)(C(=O)Nc1cc(C2(COC3CCCCO3)CCCC2)no1)S(=O)(=O)c1ccc(F)cc1` (centres unmarked), the EC50 at human CB2R is 5.3 nM; on human CB1R, above 50000 nM.

Consider `C[C@H](O)C(C)(C)c1cc(NC(=O)C(C)(C)S(=O)(=O)c2ccc(F)cc2)on1`, for which the EC50 is 42 nM on human CB2R and above 50000 nM on human CB1R.

Consider `COCCOCC(C)(C)c1cc(NC(=O)C(C)(C)S(=O)(=O)CCC(F)(F)F)on1`, for which the EC50 was 27 nM at human CB2R and above 50000 nM on human CB1R.

With `CC(C)(COCCO)c1cc(NC(=O)C(C)(C)S(=O)(=O)CC2CCOCC2)on1`, the EC50 was 13 nM on human CB2R and above 50000 nM on human CB1R.

Turning to `CC(C)(COC(=O)c1ccccc1)c1cc(NC(=O)C(C)(C)S(=O)(=O)C2CCOCC2)on1`, the figures for the EC50 at human CB2R and on human CB1R were 11 nM and above 50000 nM, respectively.

As to `COCCOCC(C)(C)c1cc(NC(=O)C(C)(C)S(=O)(=O)CC2CCOCC2)no1`, the EC50 on human CB2R was 15 nM; on human CB1R, above 50000 nM.

As to `COCCOCC(C)(C)c1cc(NC(=O)C(C)(C)S(=O)(=O)C2CCOCC2)no1`, the figures for the EC50 on human CB2R and at human CB1R were 15 nM and above 50000 nM, respectively.

Take `COc1ccc(COCC(C)(C)c2cc(NC(=O)C(C)(C)S(=O)(=O)CC3CCOCC3)on2)cc1`: the EC50 on human CB2R (setting [1]) was 167 nM; at human CB1R (setting [2]) it was above 20000 nM.

In the case of `CC(C)C(O)C(C)(C)c1cc(NC(=O)C(C)(C)S(=O)(=O)C2CCOCC2)on1` (centres unmarked), the EC50 is 150 nM on human CB2R (setting [1]) and above 50000 nM on human CB1R (setting [2]).

As to `CCn1nc(NC(=O)C(C)(C)S(=O)(=O)C2CCOCC2)nc1-c1ccc(OC)cc1`, the EC50 was 77 nM at human CB2R and above 500000 nM on human CB1R.

With `CC(C)(COCCO)c1cc(NC(=O)C(C)(C)S(=O)(=O)C2CCOCC2)no1`, the EC50 at human CB2R was 2.4 nM; at human CB1R, above 50000 nM.

Turning to `COCCOCC1(c2cc(NC(=O)C(C)(C)S(=O)(=O)C3CCOCC3)on2)CCCCC1`, the EC50 on human CB2R was 59 nM; at human CB1R, above 50000 nM.

As to `CC(C)(C(=O)Nc1cc(C2CCCO2)no1)S(=O)(=O)C1CCOCC1` (centres unmarked), the EC50 was 101 nM at human CB2R (setting [1]) and above 50000 nM at human CB1R (setting [2]).

Turning to `CC1(c2cc(NC(=O)C(C)(C)S(=O)(=O)C3CCOCC3)on2)CCCO1` (centres unmarked), the EC50 on human CB2R is 13 nM; on human CB1R, above 50000 nM.

In the case of `CC(C)CCS(=O)(=O)C(C)(C)C(=O)Nc1cc(C2CCOCC2)no1`, the EC50 on human CB2R was 97 nM; on human CB1R, above 20000 nM.

On to `CO[C@@H](C)C(C)(C)c1cc(NC(=O)C(C)(C)S(=O)(=O)C2CCOCC2)no1`, for which the EC50 at human CB2R was 10.8 nM; at human CB1R it was above 50000 nM.

With `COCCOC(C)(C)c1cc(NC(=O)C(C)(C)S(=O)(=O)C2CCOCC2)on1`, the EC50 is 96 nM at human CB2R and above 50000 nM at human CB1R.

For the molecule `CC(O)C(C)(C)c1cc(NC(=O)C(C)(C)S(=O)(=O)CCCC(F)(F)F)on1` (centres unmarked), the EC50 was 31 nM on human CB2R and above 20000 nM at human CB1R.

In the case of `C[C@H](O)C(C)(C)c1cc(NC(=O)C(C)(C)S(=O)(=O)CC[C@@H]2CCOC2)no1`, the EC50 worked out at 15 nM at human CB2R and 21000 nM at human CB1R.

`CCn1nc(NC(=O)C(C)(C)S(=O)(=O)C2CCOCC2)nc1-c1ccc(O)cc1`: the EC50 is 10 nM on human CB2R and above 20000 nM at human CB1R.

Take `CO[C@@H](C)C(C)(C)c1cc(NC(=O)C(C)(C)S(=O)(=O)CC2CCOCC2)no1`: the EC50 at human CB2R was 30 nM; at human CB1R it was above 50000 nM.

For `C[C@H](O)C(C)(C)c1cc(NC(=O)C(C)(C)S(=O)(=O)CC2CCOCC2)no1`, the EC50 at human CB2R (setting [1]) is 121 nM; on human CB1R (setting [2]), above 50000 nM.

Regarding `CC[C@H](C)S(=O)(=O)C(C)(C)C(=O)Nc1cc(C(C)(C)[C@H](C)O)no1`, the EC50 at human CB2R (setting [1]) was 250 nM; at human CB1R (setting [2]) it was above 50000 nM.

In the case of `CC(C)(C(=O)Nc1cc(C2CCOCC2)no1)S(=O)(=O)CCCC(F)(F)F`, the EC50 is 368 nM on human CB2R (setting [1]) and above 50000 nM on human CB1R (setting [2]).

In the case of `CC(C)(C)C(=O)OCC(C)(C)c1cc(NC(=O)C(C)(C)S(=O)(=O)C2CCOCC2)on1`, the EC50 was 50 nM at human CB2R and above 50000 nM at human CB1R.

As for `C[C@H](O)C(C)(C)c1cc(NC(=O)C(C)(C)S(=O)(=O)C2CCOCC2)no1`, the results for the EC50 on human CB2R and on human CB1R were 25 nM and above 50000 nM, respectively.

As to `CC(C)(OCCO)c1cc(NC(=O)C(C)(C)S(=O)(=O)C2CCOCC2)on1`, the EC50 at human CB2R is 28 nM; at human CB1R it was above 50000 nM.

With `CC[C@H](O)C(C)(C)c1cc(NC(=O)C(C)(C)S(=O)(=O)C2CCOCC2)on1`, the values for the EC50 on human CB2R and on human CB1R were 47 nM and above 50000 nM, respectively.
